According to paper PMC7226205 (Biomolecules, 2020):

Columns and labels:
ScRvb2 = target: T1, ScRvb2 (Saccharomyces cerevisiae, UniProt Q12464); experiment: ATP/NADH coupled ATPase assay; conditions: 10 µM protomer, pH 7.5, 37 °C
T1 construct: gene RVB2

RUVBL2 = target: T2, RUVBL2 (Homo sapiens, UniProt Q9Y230); experiment: ATP/NADH coupled ATPase assay; format: biochemical
T2 construct: recombinant from E. coli BL21(DE3) pRIL
T2 sequence (Q9Y230 whole entry): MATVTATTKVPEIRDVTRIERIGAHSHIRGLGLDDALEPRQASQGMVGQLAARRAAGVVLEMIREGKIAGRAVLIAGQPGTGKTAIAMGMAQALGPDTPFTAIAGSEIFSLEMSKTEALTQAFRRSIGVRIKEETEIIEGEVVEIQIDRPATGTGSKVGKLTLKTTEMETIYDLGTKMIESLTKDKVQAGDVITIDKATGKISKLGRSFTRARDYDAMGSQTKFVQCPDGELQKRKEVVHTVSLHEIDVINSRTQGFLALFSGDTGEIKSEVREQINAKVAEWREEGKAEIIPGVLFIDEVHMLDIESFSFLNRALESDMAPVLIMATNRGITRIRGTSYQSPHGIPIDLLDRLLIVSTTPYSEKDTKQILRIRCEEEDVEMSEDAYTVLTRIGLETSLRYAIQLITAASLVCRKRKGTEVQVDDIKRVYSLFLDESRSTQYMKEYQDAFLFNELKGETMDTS

T1 sequence (Q12464 whole entry): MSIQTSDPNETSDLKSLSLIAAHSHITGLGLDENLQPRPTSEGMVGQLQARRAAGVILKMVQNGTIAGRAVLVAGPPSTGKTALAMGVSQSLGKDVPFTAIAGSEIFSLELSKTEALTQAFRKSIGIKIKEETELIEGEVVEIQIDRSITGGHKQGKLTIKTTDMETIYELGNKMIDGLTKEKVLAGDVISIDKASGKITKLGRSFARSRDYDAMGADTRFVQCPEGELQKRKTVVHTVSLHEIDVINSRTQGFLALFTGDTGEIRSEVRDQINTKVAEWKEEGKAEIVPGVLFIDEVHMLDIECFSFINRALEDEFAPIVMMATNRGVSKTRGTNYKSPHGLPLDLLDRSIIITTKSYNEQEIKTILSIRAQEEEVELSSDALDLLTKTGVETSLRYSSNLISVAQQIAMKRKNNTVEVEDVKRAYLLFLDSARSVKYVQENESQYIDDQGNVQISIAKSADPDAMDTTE

| inhibition at 15 µM (RUVBL2) [%] | Structure (SMILES) | % inhibition at 30 μM (ScRvb2) |
| --- | --- | --- |
| – | CNC(=O)c1cc(Oc2ccc(NC(=O)Nc3ccc(Cl)c(C(F)(F)F)c3)cc2)ccn1 [sorafenib] | sorafenib can inhibit RUVBL2 from Saccharomyces cerevisiae (named ScRvb2) although less efficiently |
| ~40 | CNC(=O)c1cc(Oc2ccc(NC(=O)Nc3ccc(Cl)c(C(F)(F)F)c3)c(F)c2)ccn1 [regorafenib] | – |
